# Source: US20240148821A1, “PHARMACEUTICAL USE OF CYCLIC PEPTIDE COMPOUND” (CHUGAI SEIYAKU KABUSHIKI KAISHA, priority 2021, published 2024)
# Numbered stars: 1 amine (or outer) side, 2 acyl side, 3 side chain; on linkers, the order of the positions; unused ones are H or OH. Bridge positions count the residues as written; N and C are the ends. Square brackets hold non-standard residues; d marks the D form. Peptide text beside a SMILES is read from it. * marks the point of attachment. hPhe(3,5-F2-4-CF3) = N[C@@H](CCc1cc(F)c(C(F)(F)F)c(F)c1)C(=O)O; hPhe(3-Cl-4-CF3) = N[C@@H](CCc1ccc(C(F)(F)F)c(Cl)c1)C(=O)O; ACHC(1R,2R) = O=C([C@@H]1CCCC[C@H]1N[*:1])[*:2]; NMePhe(4-CN) = CN[C@@H](Cc1ccc(C#N)cc1)C(=O)O; NEtPhe(4-Me) = CCN[C@@H](Cc1ccc(C)cc1)C(=O)O; NMePhe(4-Me) = CN[C@@H](Cc1ccc(C)cc1)C(=O)O; NMeGly(cPent) = CN[C@H](C(=O)O)C1CCCC1; Phe(3-I) = N[C@@H](Cc1cccc(I)c1)C(=O)O; Phe(2-F) = N[C@@H](Cc1ccccc1F)C(=O)O; NMe3Pal = CN[C@@H](Cc1cccnc1)C(=O)O; NMeCha = CN[C@@H](CC1CCCCC1)C(=O)O; NMeGly(cPr) = CN[C@H](C(=O)O)C1CC1; NMeChg = CN[C@H](C(=O)O)C1CCCCC1; NMeI = CC[C@H](C)[C@H](NC)C(=O)O; NMeD = CN[C@@H](CC(=O)O)C(=O)O; NMeL = CN[C@@H](CC(C)C)C(=O)O; NMePra = C#CC[C@H](NC)C(=O)O; NMeV = CN[C@H](C(=O)O)C(C)C; d(β3hA) = C[C@@H](N)CC(=O)O; dPip = O=C(O)[C@H]1CCCCN1; NMeA = CN[C@@H](C)C(=O)O; NMeAib = CNC(C)(C)C(=O)O; Piperidide = C1CCN(*)CC1; Ac5c = NC1(C(=O)O)CCCC1; Aze = O=C(O)[C@@H]1CCN1; Sar = CNCC(=O)O
# System: Human pancreatic cancer cell line AsPC-1 (G12D mutation Kras)
# Test: AsPC-1 cell growth inhibition (AsPC-1 CGI)
# Format: cell-based
# Conditions: read-out: AsPC-1 cell growth inhibition, 50% growth inhibitory concentration (IC50 value); 96 hours, CellTiter-Glo, values classified in ranges
# Method: Test compounds were serially dilated with dimethyl sulfoxide, and 200 nL was then dispensed to a U-bottom 96-well plate using Labcyte Echo. […] The cell suspension was dispensed to a. plate containing a test compound at 100 μL per well and incubated at 37° C. in a 5% carbon dioxide gas incubator. 96 hours later, 80 μL of CellTiter-Glo (Promega) was added to each well and fluorescence was measured.
row,Structure (SMILES),IC50
1,CC[C@H](C)[C@@H]1NC(=O)[C@H](C)N(C)C(=O)C[C@@H](C(=O)N2CCCCC2)N(C)C(=O)[C@H](C(C)C)N(C)C(=O)C2(CCCC2)NC(=O)[C@@H]2CCCN2C(=O)[C@H](CCc2ccc(C(F)(F)F)c(Cl)c2)NC(=O)[C@H]2CCCCN2C(=O)[C@H](CC2CCCCC2)N(C)C(=O)[C@@H]2CCN2C(=O)CN(C)C1=O [Compound 553] ([NMeA]I[Sar][Aze][NMeCha][dPip][hPhe(3-Cl-4-CF3)]P[Ac5c][NMeV][NMeD]-Piperidide; lactam N-11),> 500 nM
2,C#CC[C@H]1C(=O)N(C)CC(=O)N[C@@H](CCc2ccc(C(F)(F)F)c(Cl)c2)C(=O)N2CCC[C@H]2C(=O)NC2(CCCC2)C(=O)N(C)[C@@H](C2CCCCC2)C(=O)N(C)[C@H](C(=O)N2CCCCC2)CC(=O)N(C)[C@@H](CC(C)C)C(=O)N[C@@H]([C@@H](C)CC)C(=O)N(C)CC(=O)N(C)CC(=O)N1C [Compound 554] ([NMeL]I[Sar][Sar][NMePra][Sar][hPhe(3-Cl-4-CF3)]P[Ac5c][NMeChg][NMeD]-Piperidide; lactam N-11),> 500 nM
3,CC[C@H](C)[C@@H]1NC(=O)[C@H](CC(C)C)N(C)C(=O)C[C@@H](C(=O)N2CCCCC2)N(C)C(=O)[C@H](CC(C)C)NC(=O)C(C)(C)N(C)C(=O)[C@H](Cc2ccccc2F)NC(=O)[C@H](Cc2cccc(I)c2)NC(=O)CN(C)C(=O)[C@H](Cc2ccc(C)cc2)N(C)C(=O)CN(C)C(=O)CN(C)C1=O [Compound 556] ([NMeL]I[Sar][Sar][NMePhe(4-Me)][Sar][Phe(3-I)][Phe(2-F)][NMeAib]L[NMeD]-Piperidide; lactam N-11),> 500 nM
4,CC[C@H](C)[C@@H]1NC(=O)[C@H](CC(C)C)N(C)C(=O)C[C@@H](C(=O)N(C)C)N(C)C(=O)[C@H]([C@@H](C)CC)N(C)C(=O)[C@H](C)NC(=O)[C@H](Cc2cccnc2)N(C)C(=O)[C@H](CCc2ccc(C(F)(F)F)c(Cl)c2)NC(=O)CN(C)C(=O)[C@H](Cc2ccc(C)cc2)N(C)C(=O)[C@@H]2CCN2C(=O)[C@H](C)N(C)C1=O [Compound 557] ([NMeL]I[NMeA][Aze][NMePhe(4-Me)][Sar][hPhe(3-Cl-4-CF3)][NMe3Pal]A[NMeI][NMeD]-NMe2; lactam N-11),> 500 nM
5,CC[C@H](C)[C@@H]1NC(=O)[C@H](CC(C)C)N(C)C(=O)C[C@@H](C)NC(=O)[C@H](C(C)C)N(C)C(=O)C2(CCCC2)NC(=O)[C@@H]2CCCN2C(=O)[C@H](CCc2ccc(C(F)(F)F)c(Cl)c2)NC(=O)CN(C)C(=O)[C@H](Cc2ccc(C#N)cc2)N(C)C(=O)CN(C)C(=O)CN(C)C1=O [Compound 564] (cyclo([Ac5c][NMeV][d(β3hA)][NMeL]I[Sar][Sar][NMePhe(4-CN)][Sar][hPhe(3-Cl-4-CF3)]P)),> 500 nM
6,CC[C@H](C)[C@@H]1NC(=O)[C@H](C2CC2)N(C)C(=O)C[C@@H](C)NC(=O)[C@H](C(C)C)N(C)C(=O)C2(CCCC2)NC(=O)[C@@H]2CCCN2C(=O)[C@H](CCc2ccc(C(F)(F)F)c(Cl)c2)NC(=O)CN(C)C(=O)[C@H](CC2CCCCC2)N(C)C(=O)[C@@H]2CCN2C(=O)[C@H](C)N(C)C1=O [Compound 565] (cyclo([Ac5c][NMeV][d(β3hA)][NMeGly(cPr)]I[NMeA][Aze][NMeCha][Sar][hPhe(3-Cl-4-CF3)]P)),> 500 nM
7,"CC[C@H](C)[C@@H]1NC(=O)[C@H](CC(C)C)NC(=O)[C@@H]2CCCC[C@H]2NC(=O)[C@H](C(C)C)N(C)C(=O)C2(CCCC2)NC(=O)[C@@H]2CCCN2C(=O)[C@H](CCc2ccc(C(F)(F)F)c(Cl)c2)NC(=O)CN(C)C(=O)[C@H](CC2CCCCC2)N(C)C(=O)CN(C)C(=O)CN(C)C1=O [Compound 569] (cyclo([Ac5c][NMeV][ACHC(1R,2R)]LI[Sar][Sar][NMeCha][Sar][hPhe(3-Cl-4-CF3)]P))",> 500 nM
8,CC[C@H](C)[C@@H]1NC(=O)[C@H](C2CCCC2)N(C)C(=O)C[C@@H](C)NC(=O)[C@H](C(C)C)N(C)C(=O)C2(CCCC2)NC(=O)[C@@H]2CCCN2C(=O)[C@H](CCc2ccc(C(F)(F)F)c(Cl)c2)NC(=O)CN(C)C(=O)[C@H](CC2CCCCC2)N(C)C(=O)[C@@H]2CCN2C(=O)[C@H](C)N(C)C1=O [Compound 570] (cyclo([Ac5c][NMeV][d(β3hA)][NMeGly(cPent)]I[NMeA][Aze][NMeCha][Sar][hPhe(3-Cl-4-CF3)]P)),> 500 nM
9,"CC[C@H](C)[C@@H]1NC(=O)[C@H](CC(C)C)N(C)C(=O)C[C@@H](C(=O)N(C)C)N(C)C(=O)[C@H]([C@@H](C)CC)N(C)C(=O)C2(CCCC2)NC(=O)[C@@H]2CCCN2C(=O)[C@H](CCc2cc(F)c(C(F)(F)F)c(F)c2)NC(=O)CN(C)C(=O)[C@H](Cc2ccc(C)cc2)N(CC)C(=O)[C@@H]2CCN2C(=O)[C@H](C)N(C)C1=O [Compound 571] ([NMeL]I[NMeA][Aze][NEtPhe(4-Me)][Sar][hPhe(3,5-F2-4-CF3)]P[Ac5c][NMeI][NMeD]-NMe2; lactam N-11)",≤ 20 nM
